Structures can show the parent of a compound that is named as a salt.
Key:
Assay type in all cases: physicochemical
[1] = Dynamic vapor sorption (DVS) / hygroscopicity
[2] = Solid-state chemical and physical stability on storage
[3] = Interconversion studies of Form 1 and Form 2 stirred in solvents; details: isopropanol (50° C., 7 days), acetone (50° C., 3 days), acetone/water 9/1 v/v (50° C., 1 day; room temperature, 1 day)
Experimental: In interconversion studies, equal amounts of Form 1 and Form 2 were added in various solvents and stirred at various temperatures for several days.

Hygroscopicity [1]: slightly hygroscopic | Form change after DVS analysis ([1]; after DVS analysis): No form change | DVS reversable total mass change ([1]; between about 0% to about 80% relative humidity (RH) at 25° C.): about 0.2 wt. % | DVS reversable total mass change ([1]; between about 0% to about 90% relative humidity (RH) at 25° C.): about 0.3 wt. % | Time chemically and physically stable in the solid form ([2]; 40° C./75% RH): at least 10 days | Time chemically and physically stable in the solid form ([2]; 60° C.): at least 10 days | Time chemically and physically stable ([2]; ambient temperature and humidity): at least 12 months | Relative stability of crystalline forms (form obtained from equal amounts of Form 1 and Form 2) [3]: more stable crystalline form
Structure (SMILES): [2H]C([2H])([2H])CC(=O)c1cnc(NC(=O)C2CC2)cc1Nc1cccc(-c2ncn(C([2H])([2H])[2H])n2)c1OC [Form 1, N-(4-((2-methoxy-3-(1-(methyl-d3)-1H-1,2,4-triazol-3-yl)phenyl)amino)-5-(propanoyl-3,3,3-d3)pyridin-2-yl) cyclopropanecarboxamide hydrochloride]

Source: patent US20260209205A1, “CRYSTALLINE FORMS OF A TYK2 INHIBITOR AND USES THEREOF” (Alumis Inc., priority 2022, published 2026)
